One experiment deals with T1, Human CaV2.2 channels (Homo sapiens, UniProt Q00975).
T1 construct: expressed in transfected cells
T1 sequence (P54289 947-1103): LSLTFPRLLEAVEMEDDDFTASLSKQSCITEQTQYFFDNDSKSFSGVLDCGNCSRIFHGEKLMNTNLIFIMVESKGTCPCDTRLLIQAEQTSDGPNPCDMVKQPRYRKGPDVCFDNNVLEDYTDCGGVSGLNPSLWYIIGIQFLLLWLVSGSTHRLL
T1 sequence (P54289 25-946): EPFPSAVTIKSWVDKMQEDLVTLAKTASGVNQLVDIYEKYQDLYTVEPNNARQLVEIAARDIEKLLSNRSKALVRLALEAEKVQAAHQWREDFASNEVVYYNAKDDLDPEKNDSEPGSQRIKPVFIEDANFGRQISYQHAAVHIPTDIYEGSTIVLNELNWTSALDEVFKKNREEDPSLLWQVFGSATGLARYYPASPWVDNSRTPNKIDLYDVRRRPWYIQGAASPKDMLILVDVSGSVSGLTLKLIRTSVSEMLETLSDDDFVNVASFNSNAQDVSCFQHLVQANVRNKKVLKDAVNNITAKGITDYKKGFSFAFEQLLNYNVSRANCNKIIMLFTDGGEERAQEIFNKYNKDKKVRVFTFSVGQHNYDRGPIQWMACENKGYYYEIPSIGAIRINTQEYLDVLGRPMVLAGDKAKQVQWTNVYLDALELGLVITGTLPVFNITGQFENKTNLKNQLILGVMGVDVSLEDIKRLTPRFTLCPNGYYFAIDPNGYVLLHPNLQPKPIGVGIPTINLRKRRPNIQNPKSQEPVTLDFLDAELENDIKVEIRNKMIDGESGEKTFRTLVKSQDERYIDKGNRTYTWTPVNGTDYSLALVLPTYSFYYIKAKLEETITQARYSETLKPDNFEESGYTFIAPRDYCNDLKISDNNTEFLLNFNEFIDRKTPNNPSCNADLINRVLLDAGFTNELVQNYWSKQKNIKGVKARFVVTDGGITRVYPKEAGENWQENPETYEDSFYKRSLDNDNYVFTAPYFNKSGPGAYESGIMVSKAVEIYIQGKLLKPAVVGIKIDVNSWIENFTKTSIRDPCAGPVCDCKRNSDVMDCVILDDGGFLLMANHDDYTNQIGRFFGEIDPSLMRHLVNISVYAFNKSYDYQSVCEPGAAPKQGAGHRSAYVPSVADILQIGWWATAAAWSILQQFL
T1 sequence (P54284 whole entry, further chain): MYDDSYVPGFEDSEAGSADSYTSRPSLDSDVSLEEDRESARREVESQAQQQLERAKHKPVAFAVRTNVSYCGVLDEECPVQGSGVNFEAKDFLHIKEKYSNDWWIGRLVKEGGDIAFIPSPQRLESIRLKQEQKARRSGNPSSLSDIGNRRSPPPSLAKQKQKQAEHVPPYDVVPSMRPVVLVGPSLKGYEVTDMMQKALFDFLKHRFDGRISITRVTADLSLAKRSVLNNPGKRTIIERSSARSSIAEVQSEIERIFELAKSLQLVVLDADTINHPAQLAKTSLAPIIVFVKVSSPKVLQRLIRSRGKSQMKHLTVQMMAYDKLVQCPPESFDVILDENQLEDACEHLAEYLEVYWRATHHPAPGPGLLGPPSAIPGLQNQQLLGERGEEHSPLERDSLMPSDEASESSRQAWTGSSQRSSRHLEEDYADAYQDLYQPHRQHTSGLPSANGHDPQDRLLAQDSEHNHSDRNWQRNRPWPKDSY
T1 sequence (Q00975 whole entry): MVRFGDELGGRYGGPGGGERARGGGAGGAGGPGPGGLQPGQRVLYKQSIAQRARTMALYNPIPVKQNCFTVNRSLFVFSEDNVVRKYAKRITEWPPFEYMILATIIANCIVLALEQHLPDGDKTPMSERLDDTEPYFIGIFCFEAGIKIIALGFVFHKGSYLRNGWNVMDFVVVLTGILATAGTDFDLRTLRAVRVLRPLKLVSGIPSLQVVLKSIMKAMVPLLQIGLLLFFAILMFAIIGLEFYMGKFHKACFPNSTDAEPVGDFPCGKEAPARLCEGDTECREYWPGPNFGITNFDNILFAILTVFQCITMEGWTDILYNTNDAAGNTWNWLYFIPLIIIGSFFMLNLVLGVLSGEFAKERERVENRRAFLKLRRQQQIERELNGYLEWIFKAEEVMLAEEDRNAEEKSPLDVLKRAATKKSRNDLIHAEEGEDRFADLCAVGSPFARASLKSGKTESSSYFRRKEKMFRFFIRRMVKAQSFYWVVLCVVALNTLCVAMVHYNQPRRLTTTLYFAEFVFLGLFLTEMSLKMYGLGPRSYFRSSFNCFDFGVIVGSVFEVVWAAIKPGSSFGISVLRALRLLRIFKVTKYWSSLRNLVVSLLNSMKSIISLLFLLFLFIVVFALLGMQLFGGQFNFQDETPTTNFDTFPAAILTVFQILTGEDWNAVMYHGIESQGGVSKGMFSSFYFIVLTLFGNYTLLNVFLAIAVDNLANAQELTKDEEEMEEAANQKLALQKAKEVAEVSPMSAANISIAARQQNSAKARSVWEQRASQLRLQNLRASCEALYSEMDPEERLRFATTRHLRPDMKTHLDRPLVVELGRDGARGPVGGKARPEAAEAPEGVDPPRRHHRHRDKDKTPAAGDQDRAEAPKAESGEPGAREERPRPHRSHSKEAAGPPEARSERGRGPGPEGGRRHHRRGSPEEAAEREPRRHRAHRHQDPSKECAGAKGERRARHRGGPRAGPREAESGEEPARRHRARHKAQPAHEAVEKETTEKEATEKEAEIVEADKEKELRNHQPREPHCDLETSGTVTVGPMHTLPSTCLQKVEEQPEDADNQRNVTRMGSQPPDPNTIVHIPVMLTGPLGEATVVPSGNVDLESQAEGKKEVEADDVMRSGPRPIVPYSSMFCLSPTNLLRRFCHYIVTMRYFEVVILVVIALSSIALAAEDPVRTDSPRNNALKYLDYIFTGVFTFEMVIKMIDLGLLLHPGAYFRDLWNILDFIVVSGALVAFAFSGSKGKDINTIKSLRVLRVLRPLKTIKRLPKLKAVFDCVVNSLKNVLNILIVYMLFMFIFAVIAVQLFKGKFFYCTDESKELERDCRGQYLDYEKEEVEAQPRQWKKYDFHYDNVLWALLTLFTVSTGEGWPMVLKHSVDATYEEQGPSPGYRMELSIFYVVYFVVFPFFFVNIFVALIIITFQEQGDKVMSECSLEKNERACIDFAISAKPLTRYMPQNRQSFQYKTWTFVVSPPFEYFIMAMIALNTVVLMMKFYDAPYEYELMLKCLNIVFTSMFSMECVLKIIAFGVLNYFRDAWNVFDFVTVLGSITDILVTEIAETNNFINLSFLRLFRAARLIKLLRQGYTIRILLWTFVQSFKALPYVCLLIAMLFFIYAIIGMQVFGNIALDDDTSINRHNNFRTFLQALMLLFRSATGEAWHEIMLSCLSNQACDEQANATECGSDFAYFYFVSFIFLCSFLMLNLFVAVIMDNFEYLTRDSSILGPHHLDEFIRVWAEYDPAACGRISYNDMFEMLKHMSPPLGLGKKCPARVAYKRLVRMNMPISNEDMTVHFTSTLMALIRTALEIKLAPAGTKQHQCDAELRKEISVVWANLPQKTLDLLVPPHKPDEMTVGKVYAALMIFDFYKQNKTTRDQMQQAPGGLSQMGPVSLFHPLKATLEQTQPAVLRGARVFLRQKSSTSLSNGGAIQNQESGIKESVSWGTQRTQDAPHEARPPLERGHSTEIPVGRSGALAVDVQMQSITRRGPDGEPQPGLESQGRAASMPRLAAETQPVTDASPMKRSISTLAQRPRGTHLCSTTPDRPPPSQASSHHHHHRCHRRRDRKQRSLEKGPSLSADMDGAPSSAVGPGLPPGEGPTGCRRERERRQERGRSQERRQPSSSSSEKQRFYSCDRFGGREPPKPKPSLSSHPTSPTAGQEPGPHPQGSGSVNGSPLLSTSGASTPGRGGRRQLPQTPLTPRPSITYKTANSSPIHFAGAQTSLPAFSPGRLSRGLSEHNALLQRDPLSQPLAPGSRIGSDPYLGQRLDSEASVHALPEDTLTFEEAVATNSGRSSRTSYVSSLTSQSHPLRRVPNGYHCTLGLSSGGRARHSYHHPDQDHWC
In words: Fluorescence assay for CaV2.2 channels using potassium depolarization to induce channel opening (FLIPR, Fluo 4). In kind it is cell-based. To be noted: 3 μM test compound; alternative assay buffer 30 mM KCl (inactivated channel state); HEK293 cells stably expressing human CaV2.2. Summed up:
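HEK293 cells stably co-expressing CaV2.2 with alpha2-delta and beta subunits plus Kir2.3, loaded with 2 μM Fluo 4 and pre-incubated 15 min at 25° C with compound in 1 mM or 30 mM KCl buffer (pH 7.4; latter promotes inactivated state). Depolarized by KCl addition; peak fluorescence amplitude normalized to baseline gives inhibition.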
Consider `CC1(S(=O)(=O)c2cccc(C(F)(F)F)c2)CCOC(c2ccc(C3CC3)nc2)C1` (stereo not drawn) [SC-348, 2-Cyclopropyl-5-[4-methyl-4-[[3-(trifluoromethyl)phenyl]sulfonyl]-tetrahydro-pyran-2-yl]-pyridine], for which the “Activity Category: %-Inhib (CaV2.2) @3 μM @30 mM KCl” value (“Activity Category: %-Inhib” for short) was “A (%-Inhibition >95%)”.

Consider `COc1ccc(C2CC(C)(S(=O)(=O)c3cccc(C(F)(F)F)c3)CCO2)cn1` (stereo not drawn) [SC-354, 2-Methoxy-5-[4-methyl-4-[[3-(trifluoromethyl)phenyl]sulfonyl]-tetrahydro-pyran-2-yl]-pyridine], for which the “Activity Category: %-Inhib” value was “A (%-Inhibition >95%)”.

Turning to `CC1(S(=O)(=O)c2cccc(C(F)(F)F)c2)CCOC(c2ncc(C(F)(F)F)cc2S(C)(=O)=O)C1` (stereo not drawn) [SC-356, 3-Methylsulfonyl-2-[4-methyl-4-[[3-(trifluoromethyl)phenyl]sulfonyl]-tetrahydro-pyran-2-yl]-5-(trifluoromethyl)-pyridine], the “Activity Category: %-Inhib” value is on record as “A (%-Inhibition >95%)”.

`Cn1nc(S(C)(=O)=O)cc1C1CC(C)(S(=O)(=O)c2cccc(C(F)(F)F)c2)CCO1` (stereo not drawn) [SC-429, 1-Methyl-3-methylsulfonyl-5-[4-methyl-4-[[3-(trifluoromethyl)phenyl]sulfonyl]-tetrahydro-pyran-2-yl]-1H-pyrazole]: the “Activity Category: %-Inhib” value is on record as “C (%-Inhibition >40% up to ≤75%)”.

For the molecule `Cn1nc(S(C)(=O)=O)cc1C1CC(C)(S(=O)(=O)c2cccc(C(F)(F)F)c2)CCO1` (stereo not drawn) [SC-430, 1-Methyl-3-methylsulfonyl-5-[4-methyl-4-[[3-(trifluoromethyl)phenyl]sulfonyl]-tetrahydro-pyran-2-yl]-1H-pyrazole], the “Activity Category: %-Inhib” value is listed as “B (%-Inhibition >75% up to ≤95%)”.

Consider `Cn1nc(C2CC2)cc1C1CC(C)(S(=O)(=O)c2cccc(C(F)(F)F)c2)CCO1` (stereo not drawn) [SC-432, 3-Cyclopropyl-1-methyl-5-[4-methyl-4-[[3-(trifluoromethyl)phenyl]sulfonyl]-tetrahydro-pyran-2-yl]-1H-pyrazole], for which the “Activity Category: %-Inhib” value is “A (%-Inhibition >95%)”.

In the case of `CC1(S(=O)(=O)c2cccc(OC(F)F)c2)CCOC(c2ncc(S(C)(=O)=O)cc2Cl)C1` (stereo not drawn) [SC-436, 3-Chloro-2-[4-[[3-(difluoro-methoxy)-phenyl]sulfonyl]-4-methyl-tetrahydro-pyran-2-yl]-5-methylsulfonyl-pyridine], the “Activity Category: %-Inhib” value is listed as “C (%-Inhibition >40% up to ≤75%)”.

`CC1(S(=O)(=O)c2cccc(OC(F)F)c2)CCOC(c2ncc(S(C)(=O)=O)cc2Cl)C1` (stereo not drawn) [SC-437, 3-Chloro-2-[4-[[3-(difluoro-methoxy)-phenyl]sulfonyl]-4-methyl-tetrahydro-pyran-2-yl]-5-methylsulfonyl-pyridine]: the “Activity Category: %-Inhib” value is recorded as “B (%-Inhibition >75% up to ≤95%)”.

`CC1(S(=O)(=O)c2cccc(Cl)c2)CCOC(c2ncc(S(C)(=O)=O)cc2Cl)C1` (stereo not drawn) [SC-439, 3-Chloro-2-[4-[(3-chlorophenyl)sulfonyl]-4-methyl-tetrahydro-pyran-2-yl]-5-methylsulfonyl-pyridine]: the “Activity Category: %-Inhib” value is listed as “C (%-Inhibition >40% up to ≤75%)”.

Regarding `CC1(S(=O)(=O)c2cccc(Cl)c2)CCOC(c2ncc(S(C)(=O)=O)cc2Cl)C1` (stereo not drawn) [SC-440, 3-Chloro-2-[4-[(3-chlorophenyl)sulfonyl]-4-methyl-tetrahydro-pyran-2-yl]-5-methylsulfonyl-pyridine], the “Activity Category: %-Inhib” value is listed as “B (%-Inhibition >75% up to ≤95%)”.

Consider `Cc1cc(S(C)(=O)=O)cnc1C1CC(C)(S(=O)(=O)c2cc(F)cc(C(F)(F)F)c2)CCO1` (stereo not drawn) [SC-444, 2-[4-[[3-Fluoro-5-(trifluoromethyl)-phenyl]sulfonyl]-4-methyl-tetrahydro-pyran-2-yl]-3-methyl-5-methylsulfonyl-pyridine], for which the “Activity Category: %-Inhib” value is listed as “B (%-Inhibition >75% up to ≤95%)”.

As for `Cc1cc(S(C)(=O)=O)cnc1C1CC(C)(S(=O)(=O)c2cc(F)cc(C(F)(F)F)c2)CCO1` (stereo not drawn) [SC-445, 2-[4-[[3-Fluoro-5-(trifluoromethyl)-phenyl]sulfonyl]-4-methyl-tetrahydro-pyran-2-yl]-3-methyl-5-methylsulfonyl-pyridine], the “Activity Category: %-Inhib” value is recorded as “C (%-Inhibition >40% up to ≤75%)”.

Take `CC(C)c1cccc(S(=O)(=O)C2(C)CCOC(c3ncc(S(C)(=O)=O)cc3Cl)C2)c1` (stereo not drawn) [SC-447, 3-Chloro-2-[4-[(3-isopropyl-phenyl)sulfonyl]-4-methyl-tetrahydro-pyran-2-yl]-5-methylsulfonyl-pyridine]: the “Activity Category: %-Inhib” value is reported as “A (%-Inhibition >95%)”.

Still in this experiment, the particulars now being: HEK293, 3 μM test compound; alternative assay buffer 30 mM KCl (inactivated channel state); HEK293 cells stably expressing human CaV2.2; read-out: Activity Category: %-Inhib (CaV2.2) @3 μM @30 mM KCl.
Take `O=S(=O)(c1cccc(C(F)(F)F)c1)C1CCOC(c2cccc(C(F)(F)F)n2)C1` (stereo not drawn) [SC-350, 2-(Trifluoromethyl)-6-[4-[[3-(trifluoromethyl)phenyl]sulfonyl]-tetrahydro-pyran-2-yl]-pyridine]: the inhibition at 3 µM is greater than 95%.

`COc1ccc(C2CC(C)(S(=O)(=O)c3cccc(C(F)(F)F)c3)CCO2)cn1` (stereo not drawn) [SC-353, 2-Methoxy-5-[4-methyl-4-[[3-(trifluoromethyl)phenyl]sulfonyl]-tetrahydro-pyran-2-yl]-pyridine]: the inhibition at 3 µM was in the range of 75 to 95%.

For the molecule `CC1(S(=O)(=O)c2cccc(C(F)(F)F)c2)CCOC(c2ncc(C(F)(F)F)cc2S(C)(=O)=O)C1` (stereo not drawn) [SC-355, 3-Methylsulfonyl-2-[4-methyl-4-[[3-(trifluoromethyl)phenyl]sulfonyl]-tetrahydro-pyran-2-yl]-5-(trifluoromethyl)-pyridine], the inhibition at 3 µM lay in the range of 75 to 95%.

For `CC1(S(=O)(=O)c2cccc(C(F)(F)F)c2)CCOC(c2ccc(N3CCCC3)nc2)C1` (stereo not drawn) [SC-400, 5-[4-Methyl-4-[[3-(trifluoromethyl)phenyl]sulfonyl]-tetrahydro-pyran-2-yl]-2-pyrrolidin-1-yl-pyridine], the inhibition at 3 µM was greater than 95%.

Take `CC1(S(=O)(=O)c2cccc(C(F)(F)F)c2)CCOC(c2ccc(-n3cncn3)nc2)C1` (stereo not drawn) [SC-402, 5-[4-Methyl-4-[[3-(trifluoromethyl)phenyl]sulfonyl]-tetrahydro-pyran-2-yl]-2-(1H-[1,2,4]triazol-1-yl)-pyridine]: the inhibition at 3 µM is 75 to 95%.

Regarding `COCCOc1ccc(C2CC(C)(S(=O)(=O)c3cccc(C(F)(F)F)c3)CCO2)cn1` (stereo not drawn) [SC-404, 2-(2-Methoxy-ethoxy)-5-[4-methyl-4-[[3-(trifluoromethyl)phenyl]sulfonyl]-tetrahydro-pyran-2-yl]-pyridine], the inhibition at 3 µM fell in the range of 75 to 95%.

As for `CNc1ccc(C2CC(C)(S(=O)(=O)c3cccc(C(F)(F)F)c3)CCO2)cn1` (stereo not drawn) [SC-408, Methyl-[5-[4-methyl-4-[[3-(trifluoromethyl)phenyl]sulfonyl]-tetrahydro-pyran-2-yl]-pyridin-2-yl]-amine], the inhibition at 3 µM was 75 to 95%.

On to `COc1ncc(C2CC(C)(S(=O)(=O)c3cccc(C(F)(F)F)c3)CCO2)cn1` (stereo not drawn) [SC-410, 2-Methoxy-5-[4-methyl-4-[[3-(trifluoromethyl)phenyl]sulfonyl]-tetrahydro-pyran-2-yl]-pyrimidine], for which the inhibition at 3 µM is 40 to 75%.

Consider `CN(C)c1ncc(C2CC(C)(S(=O)(=O)c3cccc(C(F)(F)F)c3)CCO2)cn1` (stereo not drawn) [SC-413, Dimethyl-[5-[4-methyl-4-[[3-(trifluoromethyl)phenyl]sulfonyl]-tetrahydro-pyran-2-yl]-pyrimidin-2-yl]-amine], for which the inhibition at 3 µM lay within 75 to 95%.

Turning to `COc1cnc(C2CC(C)(S(=O)(=O)c3cccc(C(F)(F)F)c3)CCO2)cn1` (stereo not drawn) [SC-415, 2-Methoxy-5-[4-methyl-4-[[3-(trifluoromethyl)phenyl]sulfonyl]-tetrahydro-pyran-2-yl]-pyrazine], the inhibition at 3 µM lay in the range of 75 to 95%.

As for `CC1(S(=O)(=O)c2cccc(C(F)(F)F)c2)CCOC(c2ccc(OC(F)F)nc2)C1` (stereo not drawn) [SC-418, 2-(Difluoro-methoxy)-5-[4-methyl-4-[[3-(trifluoromethyl)phenyl]sulfonyl]-tetrahydro-pyran-2-yl]-pyridine], the inhibition at 3 µM was greater than 95%.

As for `CN(C)c1cnc(C2CC(C)(S(=O)(=O)c3cccc(C(F)(F)F)c3)CCO2)cn1` (stereo not drawn) [SC-421, Dimethyl-[5-[4-methyl-4-[[3-(trifluoromethyl)phenyl]sulfonyl]-tetrahydro-pyran-2-yl]-pyrazin-2-yl]-amine], the inhibition at 3 µM was in the range of 75 to 95%.

Take `CC1(S(=O)(=O)c2cccc(C(F)(F)F)c2)CCOC(c2ncc(C3CC3)cc2Cl)C1` (stereo not drawn) [SC-425, 3-Chloro-5-cyclopropyl-2-[4-methyl-4-[[3-(trifluoromethyl)phenyl]sulfonyl]-tetrahydro-pyran-2-yl]-pyridine]: the inhibition at 3 µM is greater than 95%.

For `CC1(S(=O)(=O)c2cccc(C(F)(F)F)c2)CCOC(c2ncc(OC(F)F)cc2Cl)C1` (stereo not drawn) [SC-427, 3-Chloro-5-(difluoro-methoxy)-2-[4-methyl-4-[[3-(trifluoromethyl)phenyl]sulfonyl]-tetrahydro-pyran-2-yl]-pyridine], the inhibition at 3 µM was greater than 95%.

`Cn1nc(C2CC2)cc1C1CC(C)(S(=O)(=O)c2cccc(C(F)(F)F)c2)CCO1` (stereo not drawn) [SC-431, 3-Cyclopropyl-1-methyl-5-[4-methyl-4-[[3-(trifluoromethyl)phenyl]sulfonyl]-tetrahydro-pyran-2-yl]-1H-pyrazole]: the inhibition at 3 µM fell in the range of 75 to 95%.

Take `Cc1cc(S(C)(=O)=O)cnc1C1CC(C)(S(=O)(=O)c2cc(F)cc(C(F)F)c2)CCO1` (stereo not drawn) [SC-442, 2-[4-[[3-(Difluoro-methyl)-5-fluoro-phenyl]sulfonyl]-4-methyl-tetrahydro-pyran-2-yl]-3-methyl-5-methylsulfonyl-pyridine]: the inhibition at 3 µM fell in the range of 40 to 75%.

For `CC(C)c1cccc(S(=O)(=O)C2(C)CCOC(c3ncc(S(C)(=O)=O)cc3Cl)C2)c1` (stereo not drawn) [SC-446, 3-Chloro-2-[4-[(3-isopropyl-phenyl)sulfonyl]-4-methyl-tetrahydro-pyran-2-yl]-5-methylsulfonyl-pyridine], the inhibition at 3 µM lay within 75 to 95%.

The values are drawn from US9926302B2, “Heteroaryl substituted heterocyclyl sulfones” (priority 2014, dated 2018).
